This is an account of results in article PMC6166404 (Journal of medicinal chemistry, 2018).

Like-named read-outs stand apart in the source and are kept apart here.

The test system of one data set is HepG2 cells. Particulars: 24 h; for cytotoxicity, lactate dehydrogenase release: 25 μM, range stated for the three compounds together; for LD50 / cytotoxicity (in words): LDH release; for cytotoxicity (in words): up to 25 μM. (In general: LDH in the medium is a marker of cell lysis.)
The target in a further data set is human IMPDH2 (Homo sapiens, UniProt P12268). The experiment in a line: biochemical.
The next data set has as its target T1, human GMPR2 (Homo sapiens, UniProt Q9P2T1).
T1 sequence (Q9P2T1 1-348): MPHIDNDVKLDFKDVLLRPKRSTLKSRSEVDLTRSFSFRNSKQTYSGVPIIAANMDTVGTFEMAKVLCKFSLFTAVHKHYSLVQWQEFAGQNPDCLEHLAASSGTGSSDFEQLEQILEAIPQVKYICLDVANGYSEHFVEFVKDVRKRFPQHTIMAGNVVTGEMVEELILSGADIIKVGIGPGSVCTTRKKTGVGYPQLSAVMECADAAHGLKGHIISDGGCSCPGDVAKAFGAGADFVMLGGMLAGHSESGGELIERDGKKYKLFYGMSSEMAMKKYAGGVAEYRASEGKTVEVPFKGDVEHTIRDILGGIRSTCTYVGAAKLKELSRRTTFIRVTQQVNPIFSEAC
The experiment in a line: biochemical.

Data set [1] relates to Mtb H37Rv (ATCC 27294). Format: cell-based. Particulars: for antibacterial activity over two weeks: two weeks in culture; for effect of guanine on MIC: presence of guanine (200 μM).
Another data set concerns HEK293T cells. Particulars: 25 μM, LDH release.
The next data set deals with MCF7 cells. Particulars: 25 μM, LDH release.
The next data set deals with Hela cells. Particulars: 25 μM, LDH release.
The conditions of data set [2]: 2 h.
A further data set concerns H37Rv. In kind it is cell-based. Particulars: addition of ATc.
For data set [3], the system named is Mtb H37Rv (ATCC 27294). The settings on record: 7H9/ADC/Tween medium, no guanine, 1 week; cited from earlier work.

On to `C[C@H](Oc1cccc(F)c1F)C(=O)Nc1ccc2oc(-c3ccc(C#N)cc3)nc2c1` [Compound 8p, (S)-N-(2-(4-Cyanophenyl)benzo[d]oxazol-5-yl)-2-(2,3-difluorophenoxy)propanamide], for which, in the data set on HepG2 cells, the “cytotoxicity, lactate dehydrogenase release” value is given as 9–13% and the LD50 was above 25 µM.
Consider `C[C@H](Oc1cccc(Cl)c1Cl)C(=O)Nc1ccc2oc(-c3ccc(-c4nnn[nH]4)cc3)nc2c1` [Compound 27, (S)-N-(2-(4-(1H-Tetrazol-5-yl)phenyl)benzo[d]oxazol-5-yl)-2-(2,3-dichlorophenoxy)propanamide], for which the Ki at human IMPDH2 and at human GMPR2 was above 5 µM in each case.
In the case of `C[C@H](Nc1cccc(F)c1F)C(=O)Nc1ccc2oc(-c3ccc(C#N)cc3)nc2c1` [Compound 17b, (S)-N-(2-(4-Cyanophenyl)benzo[d]oxazol-5-yl)-2-((2,3-difluorophenyl)amino)propanamide], in the data set with Mtb H37Rv (ATCC 27294) [1] (Mtb H37Rv), the “antibacterial activity over two weeks” value is on record as “retained antibacterial activity”. Further, the “effect of guanine on MIC” value in the data set with Mtb H37Rv (ATCC 27294) [1] is recorded as “does not change”. Also, the cytotoxicity result in the data set with HEK293T cells, in the data set on MCF7 cells and in the data set with Hela cells was “less than 10%” each time. The “cytotoxicity, lactate dehydrogenase release” value in the data set on HepG2 cells is reported as 9–13%. This molecule also had an LD50 in the data set on HepG2 cells above 25 µM. In addition, the “stability in mouse plasma” value in data set [2] is given as “No decomposition”. In the data set on H37Rv, the “effect of ATc on antibacterial activity against the wild-type strain” value (from here on “effect of ATc on antibacterial activity”) is given as “not affected”.
`C[C@H](Oc1cccc(F)c1F)C(=O)Nc1ccc2oc(-c3ccc(O)cc3)nc2c1` [Compound 8n, (S)-2-(2,3-Difluorophenoxy)-N-(2-(4-hydroxyphenyl)benzo[d]oxazol-5-yl)propanamide]: in the data set on Mtb H37Rv (ATCC 27294) [1], the “effect of guanine on MIC” value was “increased substantially in the presence of guanine in both media”.
On to “(S)-2-(2,3-Dichlorophenoxy)-N-(2-(2-methoxypyridin-4-yl)benzo[d]oxazol-5-yl)propanamide [Compound 8b]”, for which the “7H9/ADC/Tween MIC +Gua” value in the data set on Mtb H37Rv (ATCC 27294) [1] (Mtb H37Rv, 7H9/ADC/Tween medium, 200 μM guanine, 1 week) is on record as 14 ± 5 (2) μM. For the same molecule, the “7H9/ADC/Tween MIC −Gua” value in the data set with Mtb H37Rv (ATCC 27294) [1] (Mtb H37Rv, 7H9/ADC/Tween medium, no guanine, 1 week) is on record as 3.5 ± 1.2 (2) μM. The “GAST/Fe MIC +Gua” value in the data set on Mtb H37Rv (ATCC 27294) [1] (Mtb H37Rv, GAST/Fe medium, 200 μM guanine, 1 week) is on record as 6.3 ± 0.0 (2) μM. For the same molecule, in the data set with Mtb H37Rv (ATCC 27294) [1] (Mtb H37Rv, GAST/Fe medium, no guanine, 1 week), the “GAST/Fe MIC −Gua” value was 6.3 ± 0.0 (2) μM.
As for `COc1ccc(-c2nc3cc(NC(=O)[C@H](C)Oc4ccccc4C#N)ccc3o2)cc1` [Compound 8u, (S)-2-(2-Cyanophenoxy)-N-(2-(4-methoxyphenyl)benzo[d]oxazol-5-yl)propanamide], in the data set on Mtb H37Rv (ATCC 27294) [1] (Mtb H37Rv), the “antibacterial activity over two weeks” value was “retained antibacterial activity”. In the data set on HepG2 cells, the “cytotoxicity, lactate dehydrogenase release” value was 9–13% and the LD50 was above 25 µM.
As to `COc1ccc(OC(C)C(=O)Nc2ccc3oc(-c4ccncc4)nc3c2)cc1` (stereo not shown) [Compound 1, reference compound], the “7H9/ADC/Tween MIC −Gua” value with Mtb H37Rv (ATCC 27294) [3] is 10 ± 2 (3) μM. The “effect of ATc on antibacterial activity” value in the data set on H37Rv is “not affected”.
Turning to `CCOC(=O)COc1ccc(-c2nc3cc(NC(=O)[C@H](C)Oc4cccc(Cl)c4Cl)ccc3o2)cc1` [Compound 18a, Ethyl (S)-2-(4-(5-(2-(2,3-dichlorophenoxy)propanamido)benzo[d]oxazol-2-yl)phenoxy)acetate], the “antibacterial activity over two weeks” value in the data set on Mtb H37Rv (ATCC 27294) [1] (Mtb H37Rv) is given as “retained antibacterial activity”. Besides, the “cytotoxicity (in words)” value with HepG2 cells is “Only compounds 8p, 8u and 17b displayed measurable cytotoxicity”. For the same molecule, the “effect of ATc on antibacterial activity” value in the data set with H37Rv is reported as “not affected”.
Take `C[C@H](Nc1cccc(Cl)c1Cl)C(=O)Nc1ccc2oc(-c3ccc(C#N)cc3)nc2c1` [Compound 17a, (S)-N-(2-(4-Cyanophenyl)benzo[d]oxazol-5-yl)-2-((2,3-dichlorophenyl)amino)propanamide]: the “antibacterial activity over two weeks” value in the data set with Mtb H37Rv (ATCC 27294) [1] (Mtb H37Rv) was “retained antibacterial activity”.
Same read-out and setting: then `C[C@H](Oc1cccc(Cl)c1Cl)C(=O)Nc1ccc2oc(-c3ccc(C(=O)NO)cc3)nc2c1` [Compound 21, (S)-4-(5-(2-(2,3-Dichlorophenoxy)propanamido)benzo[d]oxazol-2-yl)-N-hydroxybenzamide], with “retained activity”.
For `C#CCOC(=O)COc1ccc(-c2nc3cc(NC(=O)[C@H](C)Oc4cccc(Cl)c4Cl)ccc3o2)cc1` [Compound 20, Prop-2-yn-1-yl (S)-2-(4-(5-(2-(2,3-dichlorophenoxy)propanamido)benzo[d]oxa-zol-2-yl)phenoxy)acetate], in the data set on Mtb H37Rv (ATCC 27294) [1] (Mtb H37Rv), the “antibacterial activity over two weeks” value was “retained antibacterial activity”. The “cytotoxicity (in words)” value with HepG2 cells is “Only compounds 8p, 8u and 17b displayed measurable cytotoxicity”.
As for `C[C@H](Oc1cccc(Cl)c1Cl)C(=O)Nc1ccc2oc(-c3ccc(OCC(=O)O)cc3)nc2c1` [Compound 19a, (S)-2-(4-(5-(2-(2,3-Dichlorophenoxy)propanamido)benzo[d]oxazol-2-yl)phenoxy)acetic acid], in the data set with HepG2 cells, the “cytotoxicity (in words)” value was “no cytotoxicity was observed”.
For the molecule `C[C@H](Oc1cccc(F)c1F)C(=O)Nc1ccc2oc(-c3ccncc3)nc2c1` [Compound 8l, (S)-2-(2,3-Difluorophenoxy)-N-(2-(pyridin-4-yl)benzo[d]oxazol-5-yl)propanamide], the “antibacterial activity over two weeks” value with Mtb H37Rv (ATCC 27294) [1] (Mtb H37Rv) is “retained antibacterial activity”. Besides, the “cytotoxicity (in words)” value in the data set with HepG2 cells was “Only compounds 8p, 8u and 17b displayed measurable cytotoxicity”.
With `C[C@H](Oc1cccc(Cl)c1Cl)C(=O)Nc1ccc2oc(-c3ccc(C(=O)O)cc3)nc2c1` [Compound 22, (S)-4-(5-(2-(2,3-Dichlorophenoxy)propanamido)benzo[d]oxazol-2-yl)benzoic acid], the “antibacterial activity over two weeks” value in the data set on Mtb H37Rv (ATCC 27294) [1] (Mtb H37Rv) is reported as “retained activity”. Further, the “effect of ATc on antibacterial activity” value in the data set with H37Rv is reported as “not affected”.
Regarding `COc1ccc(-c2nc3cc(NC(=O)[C@H](C)Oc4cccc(Cl)c4Cl)ccc3o2)cn1` [Compound 8c, (S)-2-(2,3-dichlorophenoxy)-N-(2-(6-methoxypyridin-3-yl)benzo[d]oxazol-5-yl)propanamide], in the data set on Mtb H37Rv (ATCC 27294) [1], the “effect of guanine on MIC” value is given as “increased in the presence of guanine in 7H9/ADC/Tween medium but not in GAST/Fe”.
Turning to `COc1ccc(-c2nc3cc(NC[C@H](C)Oc4cccc(Cl)c4Cl)ccc3o2)cc1` [Compound 11, (S)-N-(2-(2,3-Dichlorophenoxy)propyl)-2-(4-methoxyphenyl)benzo[d]oxazol-5-amine], the Ki (usually a measure of affinity in units of concentration, obtained from inhibition or displacement) at human GMPR2 was above 5 µM.
